Source: patent US20240293370A1, “USE OF COMPOUNDS IN INHIBITING OR KILLING MITES AND TREATING XEROPHTHALMIA” (Precvision Biotechnologies LTD., priority 2021, published 2024)
Structures can show the parent of a compound that is named as a salt.

Test system: Demodex
Assay: Acaricidal experiment: Demodex culture in vitro, survival time of mites
Details: adult Demodex, 20° C., 96% humidity
Description: This study strictly followed the ethical principles of the Declaration of Helsinki, and Ethical Guidelines for Biomedical Research Involving Human Subjects. In this study, Demodex was collected from patients diagnosed with ocular Demodex infection. Those meeting the inclusion criteria would be enrolled after an informed conversation and signing an informed consent form.
Demodex detection was performed according to the conventional eyelash microscopic examination method. 3 eyelashes were extracted from each eyelid, and a total of 12 eyelashes were extracted. The extracted eyelashes were immediately placed on a glass slide, and one piece of each three eyelashes was placed under an ordinary light microscope for observation. Demodex at all stages were counted and classified according to morphology (specific criteria were: Demodex brevis at a head-to-body ratio of 1:1 and Demodex folliculorum at a head-to-body ratio of 1:3 to 1:4). Only adults that were fully exposed to the field of view were taken as subjects (larvae and eggs were not considered as subjects since they were more fragile in early life).
Based on the above detection of Demodex, 50 μl of different solutions were added to each slide, and the survival of the worms was observed every 1 hour. The death was judged by observing whether the worms were active (body, limbs, or the like) under a microscope. Two skilled Demodex-related experimenters observed and judged separately during the experiment. If the judgment results were different, the third skilled experimenter was asked to make an independent judgment. The culture in vitro was performed in a climate chamber at 20° C. and 96% humidity. Slides were transported in a humid chamber under observation and the solution was added appropriately to ensure high humidity before vacuoles appeared on solution evaporation.

SMILES: N[C@H]1C[C@@H]1c1ccccc1 [Hydrochloride salt of V-C]
- Average survival time of mites (concentration 1 mg/mL in 0.9% NaCl solution): 7.44 ± 6.07 h
- Average survival time of mites (concentration 3 mg/mL in 0.9% NaCl solution): 5.66 ± 0.91 h
- Average survival time of mites (concentration 10 mg/mL in 0.9% NaCl solution): 2.89 ± 1.08 h
- Average survival time of mites (concentration 30 mg/mL in 0.9% NaCl solution): 2.24 ± 1.32 h
